Results as given in patent US8569229B2, “Compositions and methods which modulate G-protein signaling for the treatment of inflammatory disorders such as asthma and allergic conjunctivitis” (The Children's Hospital of Philadelphia, priority 2008, dated 2013).
“Also recorded” adds a separate entry of the source.

How the values were obtained:
rabbit ASM tissues [1] = test: Relaxation responsiveness to isoproterenol in isolated rabbit ASM tissues half-maximally contracted with ACh; conditions: for maximal relaxation (Rmax) response to isoproterenol: mean±SE, tissues exposed 24 hr to the agent (PGE2 100 nM; salmeterol 10 μM); for relaxation responsiveness to isoproterenol relative to vehicle-treated controls: tissues exposed 24 hr to the agent
Text: (§1) Detection of PDE4D5 mRNA transcripts: Total RNA was extracted from the cultured ASM cells using the TRIzol method (Invitrogen), and cDNAs were isolated by RT-PCR using the SuperScript First Strand Synthesis System kit from Invitrogen, with the following oligonucleotide primer sets (Integrated DNA Technologies): for PDE4D5, 5′-[…]-3′ (forward; SEQ ID NO: 2) and 5′-[…]-3′ (reverse; SEQ ID NO: 3); and for β-actin, 5′-[…]-3′ (forward; SEQ ID NO: 4) and 5′-[…]-3′ (reverse; SEQ ID NO: 5). The reaction volume was 20 μl and cycling conditions used were 35 cycles of 30 sec denaturation at 95° C., followed by 30 sec annealing at 60° C. and elongation at 72° C. for 30 sec. Ex-Tag (Takara Biotechnology) was used as DNA polymerase. […] Following protein extraction and the addition of gel-loading buffer, the extracts were loaded on a 10% SDS-PAGE gel for immunoblotting after transfer to a PVDF membrane. The membranes were then incubated overnight with monoclonal mouse anti-human primary antibodies directed against phospho-CREB and -ATF1, phospho-ERK1/2, or α-actin, and levels were detected by ECL after a 1-hr incubation with a 1:2,000 dilution of HRP-conjugated rabbit anti-mouse secondary antibody, followed by exposure to autoradiography film. The protein band intensities were quantified by densitometry. siRNA-mediated knockdown of PKA: ASM cells were seeded into 6-well plates and, at ˜40% confluency, the medium was replaced with the reduced serum-containing medium, Opti-MEM (Invitrogen). The cells were then transfected twice during a 24-hr interval with two pools of three siRNA duplexes, each pool targeted against the human PKAα or PKAγ catalytic subunits (Santa Cruz Biotechnology; sc-36240 and sc-36236, respectively), or with a non-targeted control (scrambled) siRNA duplex, using Oligofectamine (Invitrogen) as the transfection agent. The pools of siRNAs were applied to each well at a final concentration of 100 nM for each siRNA preparation. […] Transfection of ASM cells with adeno-βARK-ct: Adenovirus (adeno)-βARK-ct, an adenovirus vector encoding the βARK1 carboxyl-terminal domain which blocks Gβγ signaling (25,26), and adeno-β-gal, an adenovirus vector expressing lacZ as a negative control, were constructed using the AdenoX adenovirus construction kit (BD-Clontech). Recombinant plaques were isolated and propagated in HEK293 cells (Invitrogen), with viral purification using the cesium chloride gradient method, and viral titer detected by plaque assay. The ASM cells were transfected with either of the adenoviral vectors at a multiplicity of infection (MOI) of 100, and experiments were conducted at 24 hr following adenoviral tranfections. Pharmacodynamic studies of constrictor and relaxation responsiveness in rabbit ASM tissues: Following initial sedation and subsequent general anesthesia with intramuscular injections of xylazine (10 mg/kg) and ketamine (50 mg/kg), respectively, rabbits were sacrificed with an intravenously administered overdose of sodium pentobarbital (100 mg/kg). As described previously (16), the tracheae were excised via open thoracotomy, the loose connective tissue and epithelium were scraped and removed, and the tracheae were divided into 8 ring segments, each of 6-8 mm in length. […] After these incubations, the tissues were placed in organ baths containing modified Krebs-Ringer solution aerated with 5% CO2 in oxygen (pH of 7.35-7.40), and attached to force transducers to continuously monitor isometric tension. […] The constrictor and relaxation dose-response curves were analyzed with respect to each tissue's maximal isometric contractile force (Tmax) to ACh and maximal relaxation response (Rmax) to isoproterenol from the initial level of active cholinergic contraction. Statistical analyses: Results are expressed as mean±SE values. Comparisons between groups were made using the Student's t-test (two-tailed) or ANOVA with Tukey's post-test analysis, where appropriate.

CREB/ATF1 = test: Immunoblot analysis of CREB/ATF1 phosphorylation in ASM cells; type: cell-based, human; conditions: PGE2 100 nM; isoproterenol 10 μM
Text: as §1

ERK1/2 = test: Immunoblot analysis of ERK1/2 phosphorylation in ASM cells; type: cell-based, human; conditions: for time of peak ERK1/2 phosphorylation: PGE2 100 nM; for time of peak ERK1/2 phosphorylation / ERK1/2 phosphorylation in cells treated with the agent: isoproterenol or salmeterol 10 μM; for ERK1/2 phosphorylation in cells treated with the agent: PGE2 or forskolin 100 nM
Text: as §1

human ASM cells [2] = test: Assay of cAMP accumulation in cultured human ASM cells; type: cell-based; conditions: for isoproterenol-induced cAMP accumulation after 24 hr exposure to the agent: PGE2 100 nM or salmeterol 10 μM x 24 hr, no rolipram
Text: Animals: Adult New Zealand White rabbits were used in this study, which was approved by the Biosafety and Animal Research Committee of the Joseph Stokes Research Institute at Children's Hospital of Philadelphia. The animals had no signs of respiratory disease for several weeks before the study, and their care and use were in accordance with the “Guide for the Care and Use of Laboratory Animals” prepared by the Institute of Laboratory Animal Resources, National Research Council. Culture and treatment of ASM cells: The human ASM cells were grown in SmBm media supplemented with 10% FBS (BioWhittaker) and maintained throughout in a humidified incubator containing 5% CO2 in air at 37° C. The experimental protocols involved growing the cells to ˜95% confluence in the above medium. […] Assay of cAMP accumulation: In initial studies, intracellular cAMP levels were determined in near confluent ASM cell cultures at varying times following treatment of ASM cells with varying concentrations of isoproterenol (0.1 to 100 μM). […]
Thereafter, in the continued presence of these treatments, cells were exposed for 5 min to isoproterenol (10 μM) at 37° C., and intracellular cAMP concentrations were determined per manufacturer's protocols using a direct cAMP Enzyme Immunoassay Kit (R&D Systems, Minneapolis, Minn.). In both cases, the cAMP measurements were expressed in units of picomoles/milligram protein.

PDE4D5 mRNA = test: Detection of PDE4D5 mRNA transcripts by RT-PCR in ASM cells; type: cell-based, human; conditions: PGE2 100 nM, salmeterol or isoproterenol 10 μM; for peak PDE4D5 mRNA expression, fold above unstimulated cells: densitometric analysis, 3 experiments
Text: as §1

rabbit ASM tissues [3] = test: Constrictor responsiveness to acetylcholine (ACh) in isolated rabbit ASM tissues, isometric tension in organ bath; conditions: for constrictor responsiveness to ACh relative to vehicle-treated controls: tissues exposed 24 hr to the agent
Text: as §1

human ASM cells [4] = test: Assay of cAMP PDE activity in ASM cell lysates; type: cell-based; conditions: for cAMP PDE (PDE4) activity relative to vehicle-treated control cells: cells exposed 24 hr to the agent; for PDE activity, fold above control: cells incubated 24 hr with the agent (PGE2 or forskolin 100 μM; salmeterol or isoproterenol 10 μM)
Experimental: Assay of cAMP PDE activity: Levels of cAMP PDE activity were assayed in ASM cell lysates using a colorimetric, non-radioactive enzymatic assay kit from Biomol, as per the manufacture's protocol. PDE activity was determined following exposure of ASM cells for 24 hr to either vehicle alone (control), PGE2 (100 μM), or forskolin (100 μM) in the absence and presence of pretreatment with rolipram (10 μM), cycloheximide (100 μM), actinomycin D (4 μM), or H89 (10 μM).
In each case, the measured levels of PDE activity were standardized to the protein content in the cell extracts.

human ASM cells [5] = test: Assay of cAMP PDE activity in ASM cell lysates; type: cell-based
[6] = forskolin 100 μM x 24 hr, data not shown

Compound: CCCCC[C@H](O)/C=C/[C@H]1[C@H](O)CC(=O)[C@@H]1C/C=C\CCCC(=O)O [PGE2, prostaglandin (PG)E2]
- maximal relaxation (Rmax) response to isoproterenol (rabbit ASM tissues [1]): 31.4±5.4%
- relaxation responsiveness to isoproterenol relative to vehicle-treated controls (rabbit ASM tissues [1]): impaired relaxation responses; also recorded: impaired ASM relaxation
- phosphorylation of CREB and ATF1 in cells treated with the agent (CREB/ATF1): transiently increased phosphorylation; also recorded: transiently upregulated expression
- time of peak CREB/ATF1 phosphorylation (CREB/ATF1): 30 min
- time of peak ERK1/2 phosphorylation (ERK1/2): 30 min
- ERK1/2 phosphorylation in cells treated with the agent (ERK1/2): increased expression of phosphorylated ERK1/2; also recorded: significantly increased
- increase in ERK1/2 phosphorylation, fold above control (vehicle-treated) cells (ERK1/2; densitometric ratios, mean±SE, PGE2 30 min, isoproterenol 20 min): 3.76±0.64 fold
- isoproterenol-induced cAMP accumulation after 24 hr exposure to the agent (human ASM cells [2]; isoproterenol 1.0 μM, 5 min): significantly reduced cAMP responses; also recorded: significantly attenuated
- time of peak PDE4D5 mRNA induction (PDE4D5 mRNA): 6 h
- peak PDE4D5 mRNA expression, fold above unstimulated cells (PDE4D5 mRNA): 5.9 fold
- constrictor responsiveness to ACh relative to vehicle-treated controls (rabbit ASM tissues [3]): significantly increased constrictor responses; also recorded: increased constrictor responsiveness
- cAMP PDE (PDE4) activity relative to vehicle-treated control cells (human ASM cells [4]): significantly increased; also recorded: significant increase
- PDE activity, fold above control (human ASM cells [4]): 3.74 fold

Compound: COc1ccc(C2CNC(=O)C2)cc1OC1CCCC1 (stereo not drawn) [rolipram]
- effect of pretreatment on PGE2-induced impaired relaxation to isoproterenol (rabbit ASM tissues [1]; PGE2 100 nM x 24 hr): completely ablated; also recorded: prevents
- effect of pretreatment on forskolin-induced impaired relaxation to isoproterenol (rabbit ASM tissues [1]; [6]): completely abrogated
- effect of pretreatment on salmeterol-induced impaired relaxation to isoproterenol (rabbit ASM tissues [1]; salmeterol 10 μM x 24 hr): completely ablated; also recorded: prevents
- isoproterenol-induced cAMP response in PGE2-exposed cells pretreated with the agent (human ASM cells [2]; PGE2 100 nM x 24 hr, rolipram 10 μM): preserved; also recorded: unaltered
- isoproterenol-induced cAMP accumulation in cells pretreated with the agent (human ASM cells [2]; rolipram 10 μM, isoproterenol 1.0 μM, 5 min): increased isoproterenol-induced cAMP accumulation; also recorded: slightly increased
- isoproterenol-induced cAMP response in salmeterol-exposed cells co-treated with the agent (human ASM cells [2]; salmeterol 10 μM x 24 hr, rolipram 10 μM): largely preserved; also recorded: unaltered
- effect of pretreatment on PGE2-induced increase in constrictor responsiveness to ACh (rabbit ASM tissues [3]; PGE2 100 nM x 24 hr): completely abrogated; also recorded: prevents
- effect of pretreatment on forskolin-induced increase in constrictor responsiveness to ACh (rabbit ASM tissues [3]; [6]): completely abrogated
- effect of pretreatment on salmeterol-induced increase in constrictor responsiveness to ACh (rabbit ASM tissues [3]; salmeterol 10 μM x 24 hr): completely abrogated; also recorded: prevents
- effect of the agent alone on constrictor responses to ACh (rabbit ASM tissues [3]; vehicle-exposed control tissues): only modestly decreased constrictor responses; also recorded: did not exhibit any significant changes; also recorded: no significant effect
- effect of pretreatment on PGE2- and forskolin-induced increases in PDE activity (human ASM cells [5]; PGE2 or forskolin x 24 hr (100 μM in text, 100 nM in legends)): completely abrogated; also recorded: ablated
- effect of pretreatment on salmeterol- and isoproterenol-induced increase in PDE activity (human ASM cells [5]; salmeterol or isoproterenol 10 μM x 24 hr): completely abrogated; also recorded: ablated

Compound: OCc1cc(C(O)CNCCCCCCOCCCCc2ccccc2)ccc1O (stereo not drawn) [salmeterol]
- maximal relaxation (Rmax) response to isoproterenol (rabbit ASM tissues [1]): 33.39±5.1%
- relaxation responsiveness to isoproterenol relative to vehicle-treated controls (rabbit ASM tissues [1]): impaired relaxation responses
- phosphorylation of CREB and ATF1 in cells treated with the agent (CREB/ATF1): Qualitatively similar temporal changes
- time of peak ERK1/2 phosphorylation (ERK1/2): 20 min
- ERK1/2 phosphorylation in cells treated with the agent (ERK1/2): increased phosphorylation of ERK1/2; also recorded: enhanced ERK1/2 phosphorylation
- isoproterenol-induced cAMP accumulation after 24 hr exposure to the agent (human ASM cells [2]; isoproterenol 1.0 μM, 5 min): significantly reduced cAMP responses; also recorded: markedly attenuated
- time of peak PDE4D5 mRNA induction (PDE4D5 mRNA): 6 h
- peak PDE4D5 mRNA expression, fold above unstimulated cells (PDE4D5 mRNA): 7.3 fold
- constrictor responsiveness to ACh relative to vehicle-treated controls (rabbit ASM tissues [3]): significantly increased constrictor responses
- cAMP PDE (PDE4) activity relative to vehicle-treated control cells (human ASM cells [4]): significantly increased
- PDE activity, fold above control (human ASM cells [4]): ~2 fold
